Measurements taken from ChEMBL document CHEMBL1909046, “DrugMatrix in vitro pharmacology data”.

Key:
[1] = DRUGMATRIX: Sodium/nucleoside co-transporter radioligand binding (ligand: nitrobenzylthioinosine); assay type: cell membranes, Cavia porcellus, Dunkin-Hartley, Cerebral cortex, Membrane; details: Not Active = under 50% inhibition at 10 µM
[2] = target: T1, Type-2 angiotensin II receptor (Homo sapiens, UniProt P50052); assay type: cell-based; details: cho-k1; further: in other assays of this panel Not Active means under 50% inhibition at 10 µM
T1 sequence (P50052 whole entry): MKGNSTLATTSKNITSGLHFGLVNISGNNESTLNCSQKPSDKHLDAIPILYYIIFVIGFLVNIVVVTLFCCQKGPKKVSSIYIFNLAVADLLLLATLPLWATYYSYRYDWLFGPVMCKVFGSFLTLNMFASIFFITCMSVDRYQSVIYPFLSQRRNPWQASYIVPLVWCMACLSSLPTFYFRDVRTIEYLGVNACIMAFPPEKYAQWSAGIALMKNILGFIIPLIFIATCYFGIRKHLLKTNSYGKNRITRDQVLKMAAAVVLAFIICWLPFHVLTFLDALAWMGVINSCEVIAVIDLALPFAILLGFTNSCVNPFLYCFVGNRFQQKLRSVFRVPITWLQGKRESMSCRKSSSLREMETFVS

[3] = DRUGMATRIX: ATPase, Na+/K+ enzyme inhibition (substrate: ATP); assay type: tissue-based, Sus scrofa, Heart; details: Not Active = under 50% inhibition at 10 µM
[4] = target: T2, Substance-K receptor (Homo sapiens, UniProt P21452); assay type: cell membranes, CHO, Membrane; details: cho; further: in other assays of this panel Not Active means under 50% inhibition at 10 µM
T2 sequence (P21452 whole entry): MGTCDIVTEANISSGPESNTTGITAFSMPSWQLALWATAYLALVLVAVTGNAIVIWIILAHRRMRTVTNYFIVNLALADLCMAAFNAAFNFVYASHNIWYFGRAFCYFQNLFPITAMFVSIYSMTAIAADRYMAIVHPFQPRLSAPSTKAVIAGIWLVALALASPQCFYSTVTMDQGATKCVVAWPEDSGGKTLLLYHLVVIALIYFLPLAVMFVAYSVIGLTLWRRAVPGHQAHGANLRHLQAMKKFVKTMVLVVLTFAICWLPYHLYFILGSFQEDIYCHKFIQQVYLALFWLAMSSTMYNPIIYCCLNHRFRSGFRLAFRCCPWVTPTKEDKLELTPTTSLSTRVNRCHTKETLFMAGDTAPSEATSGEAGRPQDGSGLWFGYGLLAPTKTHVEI

[5] = target: Vascular endothelial growth factor receptor 1 (Homo sapiens, UniProt P17948); assay type: cell-based; details: huvec; further: in other assays of this panel Not Active means under 50% inhibition at 10 µM
[6] = target: Vasopressin V1a receptor (Homo sapiens, UniProt P37288); assay type: cell membranes, Membrane; details: hek293; further: in other assays of this panel Not Active means under 50% inhibition at 10 µM
[7] = target: Cannabinoid receptor 1 (Homo sapiens, UniProt P21554); assay type: cell membranes, Membrane; details: chem-1; further: in other assays of this panel Not Active means under 50% inhibition at 10 µM
[8] = target: C-C chemokine receptor type 5 (Homo sapiens, UniProt P51681); assay type: cell membranes, Membrane; details: hek293; further: in other assays of this panel Not Active means under 50% inhibition at 10 µM
[9] = target: T3, D(4) dopamine receptor (Homo sapiens, UniProt P21917); assay: DRUGMATRIX: Dopamine D4.2 radioligand binding (ligand: [3H] Spiperone); assay type: cell membranes, CHO-K1, Membrane; details: cho-k1; Not Active = under 50% inhibition at 10 µM
T3 sequence (P21917 whole entry): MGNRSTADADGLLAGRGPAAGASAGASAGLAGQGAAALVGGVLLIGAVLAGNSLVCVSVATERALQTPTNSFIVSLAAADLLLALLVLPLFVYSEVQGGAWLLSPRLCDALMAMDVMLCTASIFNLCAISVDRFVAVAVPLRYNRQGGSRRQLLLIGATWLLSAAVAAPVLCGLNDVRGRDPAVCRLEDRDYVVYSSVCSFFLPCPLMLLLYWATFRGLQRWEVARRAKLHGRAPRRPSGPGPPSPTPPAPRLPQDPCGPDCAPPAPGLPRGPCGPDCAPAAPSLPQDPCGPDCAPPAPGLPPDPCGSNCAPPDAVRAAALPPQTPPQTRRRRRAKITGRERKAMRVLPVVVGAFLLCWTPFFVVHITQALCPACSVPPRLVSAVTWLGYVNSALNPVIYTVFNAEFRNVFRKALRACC

[10] = DRUGMATRIX: GABAA, Muscimol, Central radioligand binding (ligand: [3H] Muscimol); assay type: cell membranes, Rattus norvegicus, Wistar, Brain, Membrane; details: Not Active = under 50% inhibition at 10 µM
[11] = target: Histamine H2 receptor (Homo sapiens, UniProt P25021); assay type: cell membranes, CHO-K1, Membrane; details: cho-k1; further: in other assays of this panel Not Active means under 50% inhibition at 10 µM
[12] = DRUGMATRIX: Imidazoline I2, Central radioligand binding (ligand: [3H] Idazoxan); assay type: cell membranes, Rattus norvegicus, Wistar, Cerebral cortex, Membrane; details: Not Active = under 50% inhibition at 10 µM
[13] = target: T4, Cysteinyl leukotriene receptor 1 (Homo sapiens, UniProt Q9Y271); assay type: cell membranes, CHO-K1, Membrane; details: cho-k1; further: in other assays of this panel Not Active means under 50% inhibition at 10 µM
T4 sequence (Q9Y271 whole entry): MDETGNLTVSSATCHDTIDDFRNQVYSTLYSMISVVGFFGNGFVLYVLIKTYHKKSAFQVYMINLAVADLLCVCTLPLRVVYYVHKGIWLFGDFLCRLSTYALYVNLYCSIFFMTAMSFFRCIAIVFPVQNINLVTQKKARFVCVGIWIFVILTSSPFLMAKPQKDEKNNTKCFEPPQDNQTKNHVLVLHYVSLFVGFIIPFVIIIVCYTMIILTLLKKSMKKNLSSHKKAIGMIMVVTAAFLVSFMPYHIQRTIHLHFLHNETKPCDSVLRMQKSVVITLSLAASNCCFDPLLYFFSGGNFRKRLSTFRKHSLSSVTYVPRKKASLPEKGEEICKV

[14] = target: Nitric oxide synthase 1 (Rattus norvegicus, UniProt P29476); assay type: tissue-based, Cerebellum; further: in other assays of this panel Not Active means under 50% inhibition at 10 µM
[15] = target: Platelet-activating factor receptor (Homo sapiens, UniProt P25105); assay: biochemical; assay type: tissue-based; details: platelet; further: in other assays of this panel Not Active means under 50% inhibition at 10 µM
[16] = target: Mitogen-activated protein kinase 3 (Homo sapiens, UniProt P27361); assay: DRUGMATRIX: Protein Serine/Threonine Kinase, ERK1 enzyme inhibition (substrate: Myelin Basic Protein); design: species or system Escherichia coli; details: Not Active = under 50% inhibition at 10 µM
[17] = target: T5, Adenosine receptor A3 (Homo sapiens, UniProt P0DMS8); assay type: cell membranes, CHO-K1, Membrane; details: cho-k1
T5 sequence (P0DMS8 whole entry): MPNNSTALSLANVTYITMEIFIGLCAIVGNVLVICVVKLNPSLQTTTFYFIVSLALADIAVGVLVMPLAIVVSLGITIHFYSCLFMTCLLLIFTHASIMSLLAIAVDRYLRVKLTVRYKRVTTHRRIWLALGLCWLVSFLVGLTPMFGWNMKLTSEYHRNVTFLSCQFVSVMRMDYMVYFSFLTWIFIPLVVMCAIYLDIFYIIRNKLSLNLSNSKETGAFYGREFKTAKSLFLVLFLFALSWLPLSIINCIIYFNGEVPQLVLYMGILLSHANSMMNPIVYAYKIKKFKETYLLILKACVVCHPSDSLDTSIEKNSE

[18] = target: Cytochrome P450 2E1 (Homo sapiens, UniProt P05181); details: bti-tn-5b1-4; further: in other assays of this panel Not Active means under 50% inhibition at 10 µM
Sequence of Cytochrome P450 2E1 (P05181 whole entry): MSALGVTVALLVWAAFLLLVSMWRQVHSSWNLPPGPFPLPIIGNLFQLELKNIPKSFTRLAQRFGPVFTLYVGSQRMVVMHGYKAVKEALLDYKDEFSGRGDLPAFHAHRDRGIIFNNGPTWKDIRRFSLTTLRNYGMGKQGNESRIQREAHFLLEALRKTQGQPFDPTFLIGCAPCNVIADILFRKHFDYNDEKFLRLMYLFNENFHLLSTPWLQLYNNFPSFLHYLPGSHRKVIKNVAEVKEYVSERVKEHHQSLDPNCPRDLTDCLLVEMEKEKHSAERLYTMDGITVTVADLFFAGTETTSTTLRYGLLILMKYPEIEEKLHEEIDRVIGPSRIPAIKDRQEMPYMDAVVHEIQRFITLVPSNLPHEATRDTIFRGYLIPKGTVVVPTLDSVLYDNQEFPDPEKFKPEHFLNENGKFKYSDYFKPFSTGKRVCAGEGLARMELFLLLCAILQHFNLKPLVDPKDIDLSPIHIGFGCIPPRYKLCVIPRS

Sequence of Cannabinoid receptor 1 (P21554 whole entry): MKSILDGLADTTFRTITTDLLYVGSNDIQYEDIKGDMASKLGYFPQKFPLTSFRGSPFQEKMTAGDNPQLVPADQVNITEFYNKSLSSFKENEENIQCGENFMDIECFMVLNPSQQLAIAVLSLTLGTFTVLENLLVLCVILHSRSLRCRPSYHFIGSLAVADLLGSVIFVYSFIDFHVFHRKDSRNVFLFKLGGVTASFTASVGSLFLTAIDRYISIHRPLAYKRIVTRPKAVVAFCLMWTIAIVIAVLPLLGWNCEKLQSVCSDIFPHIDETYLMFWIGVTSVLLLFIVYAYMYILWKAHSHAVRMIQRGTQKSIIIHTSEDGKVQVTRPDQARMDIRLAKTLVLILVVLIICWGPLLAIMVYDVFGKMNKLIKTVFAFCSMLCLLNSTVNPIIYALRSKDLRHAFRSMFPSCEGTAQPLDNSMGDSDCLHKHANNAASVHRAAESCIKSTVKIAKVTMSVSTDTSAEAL
Sequence of Nitric oxide synthase 1 (P29476 whole entry): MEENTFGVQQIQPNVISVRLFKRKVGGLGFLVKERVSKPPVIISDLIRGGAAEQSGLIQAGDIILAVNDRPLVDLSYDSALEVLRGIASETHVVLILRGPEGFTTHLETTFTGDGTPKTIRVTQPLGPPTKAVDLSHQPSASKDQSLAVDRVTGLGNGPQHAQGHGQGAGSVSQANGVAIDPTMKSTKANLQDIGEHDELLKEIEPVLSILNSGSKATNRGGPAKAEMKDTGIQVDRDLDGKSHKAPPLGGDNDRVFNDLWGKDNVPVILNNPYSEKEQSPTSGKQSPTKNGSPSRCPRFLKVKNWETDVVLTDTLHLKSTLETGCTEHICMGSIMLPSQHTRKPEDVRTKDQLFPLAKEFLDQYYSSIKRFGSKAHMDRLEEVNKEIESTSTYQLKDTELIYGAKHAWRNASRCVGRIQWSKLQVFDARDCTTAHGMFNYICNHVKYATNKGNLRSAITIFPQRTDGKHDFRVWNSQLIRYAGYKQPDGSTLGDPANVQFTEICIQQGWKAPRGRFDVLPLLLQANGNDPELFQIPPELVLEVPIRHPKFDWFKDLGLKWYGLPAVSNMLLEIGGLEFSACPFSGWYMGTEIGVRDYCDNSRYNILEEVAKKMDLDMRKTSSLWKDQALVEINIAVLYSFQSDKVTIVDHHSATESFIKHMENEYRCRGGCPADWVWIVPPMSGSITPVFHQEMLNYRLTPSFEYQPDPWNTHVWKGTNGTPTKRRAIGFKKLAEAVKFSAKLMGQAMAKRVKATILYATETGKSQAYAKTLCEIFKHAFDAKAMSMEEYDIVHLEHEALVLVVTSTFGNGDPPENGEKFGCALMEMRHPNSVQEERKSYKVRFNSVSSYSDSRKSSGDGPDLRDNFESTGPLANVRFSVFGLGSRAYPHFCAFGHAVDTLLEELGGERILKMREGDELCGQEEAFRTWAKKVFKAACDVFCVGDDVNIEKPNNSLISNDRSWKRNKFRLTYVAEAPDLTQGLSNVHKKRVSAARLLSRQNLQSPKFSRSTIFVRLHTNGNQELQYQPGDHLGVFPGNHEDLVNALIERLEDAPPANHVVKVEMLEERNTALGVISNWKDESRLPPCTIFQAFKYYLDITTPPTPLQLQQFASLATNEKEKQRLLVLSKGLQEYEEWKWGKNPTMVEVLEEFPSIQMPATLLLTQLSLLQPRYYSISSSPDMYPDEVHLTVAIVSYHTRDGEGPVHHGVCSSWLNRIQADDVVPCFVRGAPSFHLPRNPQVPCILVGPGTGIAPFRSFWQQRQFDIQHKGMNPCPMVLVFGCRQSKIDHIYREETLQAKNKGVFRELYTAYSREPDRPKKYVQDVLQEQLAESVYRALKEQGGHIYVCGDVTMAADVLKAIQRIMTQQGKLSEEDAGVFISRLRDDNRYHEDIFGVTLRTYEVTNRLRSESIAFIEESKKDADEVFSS
Sequence of Histamine H2 receptor (P25021 whole entry): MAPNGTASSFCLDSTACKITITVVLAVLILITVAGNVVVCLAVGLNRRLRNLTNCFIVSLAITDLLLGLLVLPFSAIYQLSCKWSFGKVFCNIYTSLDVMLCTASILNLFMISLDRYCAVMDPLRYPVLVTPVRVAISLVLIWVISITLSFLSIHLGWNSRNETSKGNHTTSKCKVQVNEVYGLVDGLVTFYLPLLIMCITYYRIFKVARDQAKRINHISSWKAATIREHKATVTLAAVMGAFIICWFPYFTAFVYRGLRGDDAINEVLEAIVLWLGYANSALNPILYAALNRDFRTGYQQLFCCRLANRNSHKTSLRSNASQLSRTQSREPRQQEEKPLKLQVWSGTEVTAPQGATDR
Sequence of Platelet-activating factor receptor (P25105 whole entry): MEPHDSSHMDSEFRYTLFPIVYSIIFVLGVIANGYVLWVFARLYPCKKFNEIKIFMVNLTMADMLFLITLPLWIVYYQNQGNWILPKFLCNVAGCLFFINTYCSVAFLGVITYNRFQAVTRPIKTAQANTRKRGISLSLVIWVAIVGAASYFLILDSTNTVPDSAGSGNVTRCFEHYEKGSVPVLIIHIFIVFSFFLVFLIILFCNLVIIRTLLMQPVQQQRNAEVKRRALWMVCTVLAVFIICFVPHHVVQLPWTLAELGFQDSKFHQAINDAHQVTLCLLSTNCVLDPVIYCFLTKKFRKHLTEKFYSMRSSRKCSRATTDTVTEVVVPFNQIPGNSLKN
Sequence of Vascular endothelial growth factor receptor 1 (P17948 whole entry): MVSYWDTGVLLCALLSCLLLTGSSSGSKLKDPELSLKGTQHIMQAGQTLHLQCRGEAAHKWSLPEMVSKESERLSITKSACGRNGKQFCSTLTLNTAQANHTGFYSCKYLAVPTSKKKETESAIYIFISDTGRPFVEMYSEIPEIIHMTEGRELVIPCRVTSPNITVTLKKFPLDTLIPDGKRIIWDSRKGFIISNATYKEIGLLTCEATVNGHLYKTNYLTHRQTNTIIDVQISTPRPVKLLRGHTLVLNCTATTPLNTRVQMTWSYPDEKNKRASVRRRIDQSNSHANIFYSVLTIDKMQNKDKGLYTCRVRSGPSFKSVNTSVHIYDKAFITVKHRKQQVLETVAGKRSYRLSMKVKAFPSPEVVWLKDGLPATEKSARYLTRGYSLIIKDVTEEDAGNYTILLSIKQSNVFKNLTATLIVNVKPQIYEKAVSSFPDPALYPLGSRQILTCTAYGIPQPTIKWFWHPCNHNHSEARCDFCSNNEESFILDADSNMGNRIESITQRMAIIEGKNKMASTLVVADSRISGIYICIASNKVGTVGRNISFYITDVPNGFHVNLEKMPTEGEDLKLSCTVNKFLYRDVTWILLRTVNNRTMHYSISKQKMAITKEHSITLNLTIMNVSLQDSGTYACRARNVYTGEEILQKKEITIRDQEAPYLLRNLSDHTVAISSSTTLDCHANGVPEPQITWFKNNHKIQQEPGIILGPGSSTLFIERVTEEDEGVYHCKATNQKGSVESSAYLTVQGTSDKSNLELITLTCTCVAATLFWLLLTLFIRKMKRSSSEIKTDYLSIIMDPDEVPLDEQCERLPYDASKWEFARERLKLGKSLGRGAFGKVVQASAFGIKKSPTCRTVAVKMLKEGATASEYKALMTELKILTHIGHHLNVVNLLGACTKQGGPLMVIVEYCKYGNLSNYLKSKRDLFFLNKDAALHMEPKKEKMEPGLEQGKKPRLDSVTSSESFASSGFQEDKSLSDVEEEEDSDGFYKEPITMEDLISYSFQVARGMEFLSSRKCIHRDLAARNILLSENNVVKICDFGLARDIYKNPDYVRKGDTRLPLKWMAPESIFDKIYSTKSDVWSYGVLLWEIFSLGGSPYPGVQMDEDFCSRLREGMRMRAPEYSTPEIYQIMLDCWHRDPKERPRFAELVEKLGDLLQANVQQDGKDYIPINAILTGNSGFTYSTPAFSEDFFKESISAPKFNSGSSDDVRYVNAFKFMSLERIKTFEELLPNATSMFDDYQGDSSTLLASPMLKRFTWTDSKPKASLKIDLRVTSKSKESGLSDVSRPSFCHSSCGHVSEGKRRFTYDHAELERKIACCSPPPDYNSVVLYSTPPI
Sequence of Vasopressin V1a receptor (P37288 whole entry): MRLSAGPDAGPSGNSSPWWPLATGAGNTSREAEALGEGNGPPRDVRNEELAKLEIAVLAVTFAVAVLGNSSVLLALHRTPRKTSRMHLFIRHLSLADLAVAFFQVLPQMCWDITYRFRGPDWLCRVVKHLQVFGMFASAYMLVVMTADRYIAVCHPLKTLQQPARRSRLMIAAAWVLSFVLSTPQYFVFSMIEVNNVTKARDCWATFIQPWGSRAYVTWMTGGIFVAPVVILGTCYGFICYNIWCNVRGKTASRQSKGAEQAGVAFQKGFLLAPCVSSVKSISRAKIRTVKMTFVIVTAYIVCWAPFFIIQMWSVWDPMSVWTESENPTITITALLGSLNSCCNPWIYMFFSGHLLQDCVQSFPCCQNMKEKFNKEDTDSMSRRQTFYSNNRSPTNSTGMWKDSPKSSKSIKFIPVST

CC(C)(C)NCC(O)c1cc(O)cc(O)c1 (stereo not given) [TERBUTALINE]
Not Active: IC50 [1] | Ki [1] | IC50 [2] | IC50 [3] | Ki [3] | IC50 [4] | IC50 [5] | IC50 [6] | IC50 [7] | IC50 [8] | IC50 [9] | IC50 [10] | Ki [10] | IC50 [11] | IC50 [12] | Ki [12] | IC50 [13] | IC50 [14] | IC50 [15] | IC50 [16] | IC50 [17] | IC50 [18] | Ki [18]

CN(C)[C@@H]1C(O)=C(C(N)=O)C(=O)[C@@]2(O)C(O)=C3C(=O)c4c(O)cccc4[C@@](C)(O)[C@H]3C[C@@H]12 [TETRACYCLINE]
Not Active: IC50 [1] | Ki [1] | IC50 [2] | IC50 [3] | Ki [3] | IC50 [4] | IC50 [5] | IC50 [6] | IC50 [7] | IC50 [8] | IC50 [9] | IC50 [10] | Ki [10] | IC50 [11] | IC50 [12] | Ki [12] | IC50 [13] | IC50 [14] | IC50 [15] | IC50 [16] | IC50 [17] | IC50 [18] | Ki [18]

c1ccc2[nH]c(-c3cscn3)nc2c1 [THIABENDAZOLE]
Not Active: IC50 [1] | Ki [1] | IC50 [2] | IC50 [3] | Ki [3] | IC50 [4] | IC50 [5] | IC50 [6] | IC50 [7] | IC50 [8] | IC50 [9] | IC50 [10] | Ki [10] | IC50 [11] | IC50 [12] | Ki [12] | IC50 [13] | IC50 [14] | IC50 [15] | IC50 [16] | IC50 [17] | IC50 [18] | Ki [18]

Cc1ccc(C(=O)C(C)CN2CCCCC2)cc1 (stereo not given) [TOLPERISONE]
Not Active: IC50 [1] | Ki [1] | IC50 [2] | IC50 [3] | Ki [3] | IC50 [4] | IC50 [5] | IC50 [6] | IC50 [7] | IC50 [8] | IC50 [9] | IC50 [10] | Ki [10] | IC50 [11] | IC50 [12] | Ki [12] | IC50 [13] | IC50 [14] | IC50 [15] | IC50 [16] | IC50 [17] | IC50 [18] | Ki [18]

NC(CO)(CO)CO [TROMETHAMINE]
Not Active: IC50 [1] | Ki [1] | IC50 [2] | IC50 [3] | Ki [3] | IC50 [4] | IC50 [5] | IC50 [6] | IC50 [7] | IC50 [8] | IC50 [9] | IC50 [10] | Ki [10] | IC50 [11] | IC50 [12] | Ki [12] | IC50 [13] | IC50 [14] | IC50 [15] | IC50 [16] | IC50 [17] | IC50 [18] | Ki [18]
